Results on one molecule are retold here after US8580308B2, “Modafinil pharmaceutical compositions” (Cephalon, Inc., priority 2002, dated 2013).

A short description of one series: density of modafinil. The series is classed as physicochemical. An excerpt:
Although primarily described herein with respect to “cumulative total number of particles,” it is within the ability of one skilled in the art to also make blends based upon weight of the portions used from each of the discrete lots, as detailed above. In particular, the density of modafinil is about 0.50 grams per cubic centimeter (bulk density) and about 0.60 grams per cubic centimeter (tap density). Using the density information, the statistical information that is described herein, and assuming the particles of modafinil are spherical, accurate determinations of the appropriate weight of particles in each discrete lot can be made. Similar calculations can be made with respect to the surface area of the particles.

For series [1] the following is noted: mice, single administration; cited from earlier work.
For series [2] the following is noted: monkeys, single administration; cited from earlier work.
For series [3] the following is noted: humans; cited from earlier work.

Turning to `NC(=O)C[S+]([O-])C(c1ccccc1)c1ccccc1` (centres unmarked) [modafinil, 2-(benzhydrylsulfinyl)acetamide], in the series “density of modafinil”, the bulk density result was “about 0.50 grams per cubic centimeter” and the tap density result is given as “about 0.60 grams per cubic centimeter”. Besides, the locomotor activity result in series [1] is reported as “increased locomotor activity”. Further, the nocturnal activity result in series [2] was “increased nocturnal activity”. In addition, the “treatment of idiopathic hypersomnia and narcolepsy” value in series [3] is recorded as “successfully tested”.
